Patent US9474793B2, “Vaccines and methods for prevention and treatment of drug-resistant HIV-1 and hepatitis B virus” (The United States of America, as represented by the …, priority 2005, dated 2016)
Values joined by “and” are separate entries in the source; they are usually repeats but may differ in a detail not shown here. Equal entries are not always repeated. “Also recorded” adds a separate entry of the source. Where two headings read alike, the source gives them in different places.

Assays:
HLA-A2.1 molecules [1] = biological target: T1, HLA-A2.1 molecules (Homo sapiens, UniProt P04439, D140Y/D185E/D98H/E176V/E277Q/G131W/G231S/I119V/I121R/I166T/I218V/L300P/L318F/N151K/N90K/P208A/P217A/Q86G/Q94H/R138H/R169H/T345S); assay type: binding
[2] = assay type: physicochemical; conditions: mixed with Montanide ISA-51 (300 μg dose)
Source text: When the CTL peptide […] (SEQ ID NO:6; […]

[3] = assay type: physicochemical
Source text: CTL peptides of the present invention, including the CTL peptide […] (SEQ ID NO:6; […]. The CTL peptide […] (SEQ ID NO:6; […]. The recommended storage of intact vials of the CTL peptide […] (SEQ ID NO:6; […].
Further, the CTL peptide […]

[4] = test system: RT-WT peptide-pulsed C1R.AAD target cells; assay: 51Cr-release cytotoxicity assay: recognition of RT-WT by peptide-specific CTL lines from HHD-transgenic mice; conditions: FIGS. 3-5; E/T ratio 10:1
Procedure: Mice more than eight weeks of age were immunized subcutaneously in the base of the tail with 100 μl of an emulsion containing 1:1 incomplete Freund's adjuvant (IFA) and PBS solution with antigens and cytokines (50 nmol CTL epitope, 50 nmol HBV core 128-140 helper epitope, 5 μg of IL-12 and 5 μg of granulocyte-macrophage colony stimulating factor). Mice were boosted two weeks later. Spleens were removed 10-14 days after the boost. Immune spleen cells (2.5×10^6/well) were stimulated in 24-well plates with autologous spleen cells (5×10^6/well) pulsed for 2 h with 10 μM CTL epitope peptide in CTM supplemented with 10% T-Stim (Collaborative Biochemical Products, Bedford, Mass.). Following more than 4 in vitro stimulations with peptide-pulsed syngeneic spleen cells, CTL lines were maintained by weekly restimulation of 1×10^6 CTL/well with 4×10^6 peptide pulsed irradiated (3,300 rads) gynogeneic spleen cells as feeders, or by weekly stimulation of 1×10^6 CTL/well with 3.8×10^6 peptide pulsed irradiated C57BL/6 spleen cells and 1-3×10^5 peptide pulsed and irradiated (15,000 rad) Jurkat-A2K^b transfectant cells.
(§1) CTL activity was measured using a 4-hr assay with ^51Cr-labeled target cells (Okazaki et al., J Immunol 2003, 171(5):2548-2555). Target cells (10^6) were pulsed in 100 μl of CTM and 150 μCi ^51Cr for 1.5 hr, washed three times, and added at 3,000 cells/well to the 96-well round-bottom plates with different peptide concentrations. Effector cells were introduced 2 h later. Then, the supernatants were harvested and counted following an additional 4-hr incubation. The percentage of specific ^51Cr release was calculated as 100×(experimental release−spontaneous release)/(Maximum release−spontaneous release). Spontaneous release was determined from target cells incubated in the absence of effector cells. Maximum release was determined in the presence of 0.1 M HCl. C1R.AAD cell lines served as target cells.

RT-WT specific CTL lines = assay: Recognition of RT-variant peptides by RT-WT-specific CTL lines (FIG. 2); conditions: E/T ratio 10:1
Procedure: as §1

HLA-A2.1 molecules [5] = biological target: T1, HLA-A2.1 molecules; conditions: Okazaki et al. 2003; cited from earlier work
HIV = conditions: patients infected with HIV; cited from earlier work
[6] = cited from earlier work

YLYQYVDDV
FI0.5 (concentration required to give an FI of 0.5) (HLA-A2.1 molecules [1]): 0.245 µM and 0.176 to 0.245 µM

VLYQYVDDV
physical stability of the emulsion [2]: 3 h | freeze-thaw-freeze cycles through which the peptide is stable [3]: at least two | degradation by HPLC ([3]; 1.6 mg/ml, 4° C. and 22° C., by 7 days): No degradation | loss by adsorption onto the borosilicate glass vial ([3]; at the concentrations to be used for vialing): not significantly lost | storage stability ([3]; controlled room temperature (15° C.-30° C.)): 3 months | storage stability ([3]; freezer (−10° C. to −25° C. and −70° C.)): at least 18 months | storage stability ([3]; refrigerator (2° C.-8° C.)): at least 9 months | Recognition of RT-WT by the peptide-specific CTL line [4]: to some extent; also recorded: slightly weaker than that of RT-2L9V specific CTL

VIYQYMDDL (conserved HLA-A2-restricted cytotoxic T lymphocyte (CTL) epitope in human immunodeficiency virus 1 (HIV-1) drug-sensitive wild-type reverse transcriptase (RT-WT), residues 179-187)
Recognition of the peptide by RT-WT-specific CTL (RT-WT specific CTL lines): recognized

VLYQYMDDV [RT-2L9V]
Recognition of RT-WT by the peptide-specific CTL line [4]: most strongly among all four CTL types | binding ability to HLA-A2 relative to RT-WT (HLA-A2.1 molecules [5]): approximately 8 fold

sargramostim: glycosylated, recombinant human sargramostim; position 23 arginine replaced with leucine, expressed in yeast
effect on viral load (HIV): slight decrease | impact on the CD4 count (HIV): little impact | safety (HIV): safe | stability after reconstitution ([6]; 250 μg vial reconstituted with bacteriostatic water for injection, refrigerator): 20 days | stability after initial entry into the vial ([6]; 500 μg/ml liquid): up to 20 days
